One test has as its system H-526 tumor. As to the kind of experiment: Growth of H-526 tumor transplanted to nude mice. In kind it is in vivo, Balb/c nu/nu mice. Particulars: oral, twice daily for 14 days, FIG. 2. The method, then: H-526 cells were cultured in a 5% CO2 incubator (37° C.) using an RPMI1640 medium containing 10% FCS. After the culture medium was collected, H-526 cells were washed with PBS twice and were suspended in PBS at 5.0×10^7 cells/ml. This cell suspension (0.1 ml) was transplanted to the subcutaneous parts of the right flank of 6-week female Balb/c nu/nu mice (purchased from Charles River Laboratories, Inc.). After transplantation, administration of a test substance was started at the point the tumor volume reached approximately 150 mm^3, and thus, oral administration was conducted twice daily for a period of 14 days. The test substance was suspended in a 0.5% methylcellulose solution (Wako Pure Chemical Industries Co., Ltd.) so as to give a dose of 0.1 ml/10 g body weight.
The tumor volume was measured with a caliper twice weekly during the administration period. The long and short diameters of the tumor were measured with a caliper and the tumor volume was calculated according to the equation: ½×long diameter×short diameter×short diameter. Here, the experiment was conducted in a vehicle control group of 10 animals (solvent-administered group) as well as in a test substance administered group of 5 animals.

Test [1] has as its target T1, c-Kit kinase (Homo sapiens, UniProt P10721). The experiment in a line: c-Kit kinase phosphorylation in H-526 tumor transplanted to nude mice (immunoblot). Particulars: H-526 tumor in nude mice, FIG. 3. It counts as in vivo, Balb/c nu/nu mice. Also on record: Compound 1 reduced phosphorylated c-Kit in tumor tissue when administered at 30 or 100 mg/kg; from tissue; host or cells: H-526 tumour grown subcutaneously in female Balb/c nu/nu mice. On the procedure:
0.1 ml of a H-526 cell suspension prepared at a concentration of 5.0×10^7 cells/ml, was transplanted to the subcutaneous parts of the right latus of 6-week female Balb/c nu/nu mice (purchased from Charles River Laboratories, Inc.). The animals were then divided into a vehicle control group (solvent-administered group) and a test substance administered group at the point the tumor volume reached 300-1000 mm^3: the test substance was administered to the latter group. […] After centrifugation, the supernatant was protein quantified, and a 3×SDS sample loading buffer was added to prepare a cell lysate sample. Subsequently, the cell lysate was heat-treated at 94° C. for 10 minutes and cryopreserved at -20° C. […] After electrophoresis, the sample was transferred to a PVDF membrane (Amersham Pharmacia Biotech Inc.) for 3 hours. In order to assay phosphorylated c-Kit, c-Kit and β-actin, immunoblot was performed using a phospho-c-kit ([…]) antibody (Cell Signaling Technologies, Inc.), an anti c-Kit antibody (Cell Signaling Technologies, Inc.) and an anti β-actin antibody (Sigma) as a primary antibody and an anti-rabbit IgG, HRP-linked antibody (Cell Signaling Technologies, Inc.) as a secondary antibody. After the membrane was washed, it was developed with a Super Signal (Pierce Biotechnology, Inc.).

For test [2], the system named is small cell lung cancer cell line H-526 expressing c-Kit kinase. The experiment in a line: Effect on proliferation of H-526 cells stimulated by SCF (Cell Counting Kit-8). The note with it: Homo sapiens, NCI-H526, 7th day after addition of test substance, read-out: IC50, concentration required for 50% inhibition of the cell proliferation stimulated by SCF. It counts as cell-based. On the procedure: H-526 cells were cultured in a 5% CO2 incubator (37° C.) using an RPMI1640 medium (Nissui Pharmaceutical Co., Ltd.) containing 10% FCS (purchased from Cell Culture Technologies). After culturing, H-526 cells were washed with PBS three times and were suspended in an RPMI1640 medium containing 0.1% BSA (Sigma Corporation) (hereinafter abbreviated as “BSA-RPMI1640”) at 1.0×10^5 cells/ml. […] On the 7th day after addition of the test substance, 20 μl of Cell Counting Kit-8 (Dojin Laboratories) was added to the well and was cultured in a 5% CO2 incubator (37° C.) for about 2 hours. After color development, the absorbance of each well was determined using a MTP-32 plate reader (Colona Electric Co., Ltd.) at a measuring wavelength of 450 nm and at a reference wavelength of 660 nm. The absorbance of each well was subtracted by the absorbance of the well without addition of SCF, and then the ratio of the absorbance of the well with addition of the test substance to the ratio of the absorbance of the well without addition of the test substance was determined. This ratio was used to calculate the concentration of the test substance required for 50% inhibition of the cell proliferation (IC50).

For test [3], the target named is T1, c-Kit kinase. As to the kind of experiment: c-Kit kinase phosphorylation by SCF stimulation in H-526 cells (immunoblot, phospho-c-kit Tyr719). In kind it is cell-based. Set-up: in the small cell lung cancer cell line H-526 expressing c-Kit kinase; host or cells: H-526 small cell lung cancer cells. The note with it: 1 hour test substance then 5 minutes SCF, FIG. 1. On the procedure: H-526 cells were cultured in a 5% CO2 incubator (37° C.) using an RPMI1640 medium containing 10% FCS. After culturing, H-526 cells were washed with PBS three times and were suspended in a BSA-RPMI1640 medium at 5.0×10^5 cells/ml. Each 1 ml of this cell suspension was inoculated to the well of a 24-well plate and the suspension was cultured in a 5% CO2 incubator (37° C.) for 6 hours. After 6-hours culturing, 1 ml of BSA-RPMI1640 containing a diluted test substance was added to each well and culturing was carried out in a 5% CO2 incubator (37° C.) for 1 hour. […] After 5-minutes culturing, the cells were washed with PBS and 100 μl of SDS sample loading buffer was added to the cells to prepare a cell lysate sample. After the sample was heat-treated at 94° C. for 10 minutes, it was cryopreserved at -20° C. […] After electrophoresis, the sample was transferred to a PVDF membrane (Amersham Pharmacia Biotech Inc.) for 3 hours. The transferred membrane was subjected to immunoblot using a phospho-c-kit ([…]) antibody (Cell Signaling Technology Inc.) as a primary antibody and an anti-rabbit IgG, HRP-linked antibody (Cell Signaling Technology Inc.) as a secondary antibody. After the membrane was washed, it was developed with a Super Signal (Pierce Biotechnology, Inc.).

Each structure is given as a SMILES string.

T1 sequence (P10721 26-976): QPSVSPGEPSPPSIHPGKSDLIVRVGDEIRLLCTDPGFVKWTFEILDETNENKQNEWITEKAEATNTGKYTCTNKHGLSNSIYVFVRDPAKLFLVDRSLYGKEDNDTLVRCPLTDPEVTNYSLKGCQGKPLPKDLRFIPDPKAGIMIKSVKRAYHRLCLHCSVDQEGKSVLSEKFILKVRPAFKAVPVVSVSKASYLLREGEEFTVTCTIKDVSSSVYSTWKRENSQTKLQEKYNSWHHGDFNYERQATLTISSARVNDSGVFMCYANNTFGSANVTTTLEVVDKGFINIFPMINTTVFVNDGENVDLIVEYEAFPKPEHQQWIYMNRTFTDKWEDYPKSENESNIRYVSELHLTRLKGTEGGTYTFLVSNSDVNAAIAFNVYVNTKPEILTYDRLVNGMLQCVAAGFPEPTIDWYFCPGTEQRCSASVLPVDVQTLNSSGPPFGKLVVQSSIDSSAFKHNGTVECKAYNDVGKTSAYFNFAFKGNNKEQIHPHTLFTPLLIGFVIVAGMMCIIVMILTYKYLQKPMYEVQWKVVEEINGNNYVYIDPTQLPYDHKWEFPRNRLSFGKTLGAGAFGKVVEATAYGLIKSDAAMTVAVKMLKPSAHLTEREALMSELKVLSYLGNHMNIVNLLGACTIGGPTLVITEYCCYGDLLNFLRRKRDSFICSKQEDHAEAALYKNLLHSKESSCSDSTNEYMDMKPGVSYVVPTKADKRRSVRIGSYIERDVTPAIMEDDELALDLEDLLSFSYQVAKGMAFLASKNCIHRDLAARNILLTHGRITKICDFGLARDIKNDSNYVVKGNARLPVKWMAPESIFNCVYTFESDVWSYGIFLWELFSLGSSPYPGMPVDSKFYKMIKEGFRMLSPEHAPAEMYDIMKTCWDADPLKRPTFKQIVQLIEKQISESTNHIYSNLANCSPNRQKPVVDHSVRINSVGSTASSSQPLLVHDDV

In the case of `COc1cc2nccc(Oc3ccc(NC(=O)NC4CC4)c(Cl)c3)c2cc1C(N)=O` [Compound 1, 4-(3-Chloro-4-(cyclopropylaminocarbonyl)aminophenoxy)-7-methoxy-6-quinolinecarboxamide], the “growth of nude mouse transplanted H-526 tumor (tumor volume)” value in the test with H-526 tumor is recorded as “suppressed the growth of the nude mouse transplanted H-526 tumor in a dose-dependent manner”. On c-Kit kinase [1] (30 or 100 mg/kg), the “c-Kit and β-actin in tumor tissue” value was “remained unchanged”; the “phosphorylated c-Kit in tumor tissue” value is listed as “completely inhibited phosphorylation”. In test [2], the IC50 came out at 9.36 nM. The “suppression of c-Kit kinase phosphorylation in the presence of SCF” value on c-Kit kinase [3] is listed as “suppressed the c-Kit kinase phosphorylation that would take place in the presence of SCF in a concentration-dependent manner”.
For the molecule `CCNC(=O)Nc1ccc(Oc2ccnc3cc(OC)c(C(N)=O)cc23)cc1Cl` [Compound 2, 4-(3-Chloro-4-(ethylaminocarbonyl)aminophenoxy)-7-methoxy-6-quinolinecarboxamide], in test [2], the IC50 was determined as 12.8 nM.
Consider `CONC(=O)c1cc2c(Oc3ccc(NC(=O)NC4CC4)c(Cl)c3)ccnc2cc1OC` [Compound 3, N6-Methoxy-4-(3-chloro-4-(((cyclopropylamino)carbonyl)amino)phenoxy)-7-methoxy-6-quinolinecarboxamide], for which, in test [2], the IC50 is 214 nM.
Still for that read-out and setting: to `CCNC(=O)Nc1ccc(Oc2ccnc3cc(OC)c(C(=O)NOC)cc23)cc1Cl` [Compound 4, N6-Methoxy-4-(3-chloro-4-(((ethylamino)carbonyl)amino)phenoxy)-7-methoxy-6-quinolinecarboxamide] belongs 56.3 nM.
With `Cc1ccc(NC(=O)c2ccc(CN3CCN(C)CC3)cc2)cc1Nc1nccc(-c2cccnc2)n1` [STI571, reference compound], the “anti-tumor effect on nude mouse transplanted H-526 tumor” value in the test on H-526 tumor (160 mg/kg) is “little anti-tumor effect”. Further, the “phosphorylated c-Kit in tumor tissue” value at c-Kit kinase [1] (160 mg/kg) is listed as “partially inhibited phosphorylation”.
